Assay results taken from patent US20260265238A1, “COMPOUNDS AND PHARMACEUTICAL COMPOSITIONS THAT DEGRADE SWI/SNF-RELATED MATRIX-ASSOCIATED ACTIN-DEPENDENT REGULATOR OF CHROMATIN SUBFAMILY A” (Plexium, Inc., priority 2023, published 2026).

Key:
[1] = target: T1, SMARCA2-HiBiT HeLa cells (protein which is expressed from the SMARCA2 gene) (Homo sapiens, UniProt P51531); assay: SMARCA2 degradation assay (HiBiT-fusion HeLa cell line, 24 h, luminescence); assay type: cell-based
T1 construct: protein which is expressed from the SMARCA2 and SMARCA4 genes; host or cells: HeLa (SMARCA2-HiBiT engineered line)
T1 sequence (P51531 whole entry, the tested form may be a part): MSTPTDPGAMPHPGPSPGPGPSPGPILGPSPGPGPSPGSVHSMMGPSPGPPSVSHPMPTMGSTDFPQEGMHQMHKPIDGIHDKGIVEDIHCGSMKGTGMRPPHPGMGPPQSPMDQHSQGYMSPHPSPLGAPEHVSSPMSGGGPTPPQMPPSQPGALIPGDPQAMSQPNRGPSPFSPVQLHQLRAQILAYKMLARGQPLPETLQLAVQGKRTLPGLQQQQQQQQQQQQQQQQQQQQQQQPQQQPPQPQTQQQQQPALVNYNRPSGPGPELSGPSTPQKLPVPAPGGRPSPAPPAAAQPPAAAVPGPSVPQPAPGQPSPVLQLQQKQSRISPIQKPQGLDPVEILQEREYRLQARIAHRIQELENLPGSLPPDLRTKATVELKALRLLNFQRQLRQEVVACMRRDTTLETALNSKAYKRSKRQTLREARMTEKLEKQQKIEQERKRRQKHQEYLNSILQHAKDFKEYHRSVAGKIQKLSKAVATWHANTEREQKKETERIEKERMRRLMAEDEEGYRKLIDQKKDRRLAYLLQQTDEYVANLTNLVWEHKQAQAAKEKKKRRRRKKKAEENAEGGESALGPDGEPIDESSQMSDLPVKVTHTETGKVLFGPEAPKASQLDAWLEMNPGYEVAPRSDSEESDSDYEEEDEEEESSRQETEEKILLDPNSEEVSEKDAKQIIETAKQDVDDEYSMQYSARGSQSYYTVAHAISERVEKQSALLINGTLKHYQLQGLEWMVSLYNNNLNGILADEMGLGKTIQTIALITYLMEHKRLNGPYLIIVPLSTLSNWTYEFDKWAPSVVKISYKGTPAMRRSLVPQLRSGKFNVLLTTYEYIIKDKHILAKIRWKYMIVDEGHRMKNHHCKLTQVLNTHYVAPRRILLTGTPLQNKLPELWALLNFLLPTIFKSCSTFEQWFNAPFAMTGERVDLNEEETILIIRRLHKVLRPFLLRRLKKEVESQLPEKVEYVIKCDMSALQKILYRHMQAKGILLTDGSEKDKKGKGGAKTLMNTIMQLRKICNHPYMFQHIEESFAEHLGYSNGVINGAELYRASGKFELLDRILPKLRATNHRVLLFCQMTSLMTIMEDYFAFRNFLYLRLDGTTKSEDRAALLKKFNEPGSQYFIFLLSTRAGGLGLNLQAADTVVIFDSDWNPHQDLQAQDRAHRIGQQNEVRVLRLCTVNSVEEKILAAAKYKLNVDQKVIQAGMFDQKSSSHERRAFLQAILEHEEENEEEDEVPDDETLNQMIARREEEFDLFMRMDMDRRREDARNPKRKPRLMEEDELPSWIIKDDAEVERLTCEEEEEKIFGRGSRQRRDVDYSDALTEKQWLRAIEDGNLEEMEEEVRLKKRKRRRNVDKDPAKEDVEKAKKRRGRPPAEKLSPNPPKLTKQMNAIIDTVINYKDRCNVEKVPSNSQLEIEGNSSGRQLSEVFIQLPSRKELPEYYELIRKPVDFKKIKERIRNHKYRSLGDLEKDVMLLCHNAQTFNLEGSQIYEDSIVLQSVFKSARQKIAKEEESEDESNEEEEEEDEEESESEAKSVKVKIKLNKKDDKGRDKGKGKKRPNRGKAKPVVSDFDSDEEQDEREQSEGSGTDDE
In short: (§1)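 HeLa cells carrying HiBiT-tagged SMARCA2 or SMARCA4 were seeded at 8,000 cells/well, allowed to attach overnight at 37° C., then given compounds in a 10-point dilution series (typically 10 μM to 300 pM) for 24 hours at 37° C. Remaining tagged protein was read by HiBiT lytic luminescence, and DC50s came from dose-response curves.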

[2] = target: T2, SMARCA4-HiBiT HeLa cells (protein which is expressed from the SMARCA4 gene) (Homo sapiens, UniProt P51532); assay: SMARCA4 degradation assay (HiBiT-fusion HeLa cell line, 24 h, luminescence); assay type: cell-based
T2 construct: protein which is expressed from the SMARCA2 and SMARCA4 genes; host or cells: HeLa (SMARCA4-HiBiT engineered line)
T2 sequence (P51532 whole entry, the tested form may be a part): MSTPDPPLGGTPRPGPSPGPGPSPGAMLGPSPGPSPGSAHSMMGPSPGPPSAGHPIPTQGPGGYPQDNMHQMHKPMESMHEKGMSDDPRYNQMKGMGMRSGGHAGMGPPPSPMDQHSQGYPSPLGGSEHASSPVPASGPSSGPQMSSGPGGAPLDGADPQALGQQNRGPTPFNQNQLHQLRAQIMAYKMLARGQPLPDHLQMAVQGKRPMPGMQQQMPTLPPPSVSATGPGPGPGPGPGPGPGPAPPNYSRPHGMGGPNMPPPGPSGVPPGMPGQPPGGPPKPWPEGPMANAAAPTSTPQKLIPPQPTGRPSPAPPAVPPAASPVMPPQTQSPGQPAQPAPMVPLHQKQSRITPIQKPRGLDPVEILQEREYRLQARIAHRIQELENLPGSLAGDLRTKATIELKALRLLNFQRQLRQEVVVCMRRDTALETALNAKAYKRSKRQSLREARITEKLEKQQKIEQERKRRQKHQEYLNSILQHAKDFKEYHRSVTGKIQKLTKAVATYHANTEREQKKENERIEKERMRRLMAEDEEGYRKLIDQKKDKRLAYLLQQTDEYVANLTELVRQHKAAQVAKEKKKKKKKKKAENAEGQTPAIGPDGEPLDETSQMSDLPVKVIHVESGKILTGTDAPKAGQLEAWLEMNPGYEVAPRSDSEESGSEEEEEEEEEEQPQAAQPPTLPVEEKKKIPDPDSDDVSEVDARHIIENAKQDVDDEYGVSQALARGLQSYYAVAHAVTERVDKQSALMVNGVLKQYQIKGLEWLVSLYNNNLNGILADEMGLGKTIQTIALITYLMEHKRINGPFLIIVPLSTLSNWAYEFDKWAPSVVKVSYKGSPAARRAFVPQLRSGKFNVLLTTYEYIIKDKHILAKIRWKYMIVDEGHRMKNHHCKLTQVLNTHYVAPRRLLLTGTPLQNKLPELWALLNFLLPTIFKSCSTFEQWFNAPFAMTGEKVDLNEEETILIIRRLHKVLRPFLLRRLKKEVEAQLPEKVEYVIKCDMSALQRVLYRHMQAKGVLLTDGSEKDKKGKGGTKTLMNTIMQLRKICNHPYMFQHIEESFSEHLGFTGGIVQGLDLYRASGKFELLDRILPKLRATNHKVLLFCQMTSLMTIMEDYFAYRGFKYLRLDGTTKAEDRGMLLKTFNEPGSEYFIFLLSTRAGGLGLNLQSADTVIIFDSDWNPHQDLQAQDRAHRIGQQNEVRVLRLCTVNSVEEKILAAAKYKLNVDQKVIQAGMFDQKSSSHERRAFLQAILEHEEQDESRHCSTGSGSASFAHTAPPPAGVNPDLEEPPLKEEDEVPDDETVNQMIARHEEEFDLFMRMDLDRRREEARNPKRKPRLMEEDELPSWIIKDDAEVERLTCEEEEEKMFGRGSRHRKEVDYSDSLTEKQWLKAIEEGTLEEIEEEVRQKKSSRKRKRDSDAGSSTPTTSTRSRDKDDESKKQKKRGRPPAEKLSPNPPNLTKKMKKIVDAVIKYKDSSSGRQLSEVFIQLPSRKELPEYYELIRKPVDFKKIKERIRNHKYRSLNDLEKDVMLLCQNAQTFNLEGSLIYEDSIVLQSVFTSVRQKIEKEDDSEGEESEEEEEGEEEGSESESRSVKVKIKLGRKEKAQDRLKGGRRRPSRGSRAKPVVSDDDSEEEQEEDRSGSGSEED
In short: as §1

Compound	DC50 [1]	SMARCA2 % Degradation @ 1 μM [1]	DC50 [2]	inhibition at 1 µM [2]
CO[C@@H]1CCN(CC#Cc2nccc(N3CCN(c4cc(-c5ccccc5O)nnc4N)CC[C@H]3C)n2)C1 [Compound P-242, o-{5-[(R)-4-(2-{3-[(R)-3-methoxy-1-pyrrolidinyl]-1-propynyl}-4-pyrimidinyl)-5-methyl-1,4-diazepan-1-yl]-6-amino-3-pyridazinyl} phenol]	< 50 nM	++ (++=30-70%)	< 50 nM	30 to 70%
Cn1ccc(C(=O)NCC#Cc2nccc(N3CCN(c4cc(-c5ccccc5O)nnc4N)CC3)n2)n1 [Compound P-7, N-[3-(4-{4-[3-amino-6-(2-hydroxyphenyl)pyridazin-4-yl]piperazin-1-yl}pyrimidin-2-yl)prop-2-yn-1-yl]-1-methyl-1H-pyrazole-3-carboxamide]	50 to 500 nM	++ (++=30-70%)	< 50 nM	30 to 70%
Nc1nnc(-c2ccccc2O)cc1N1CCN(c2ccnc(C#CCNC(=O)c3cc4n(n3)CCCO4)n2)CC1 [Compound P-57, N-(3-(4-(4-(3-amino-6-(2-hydroxyphenyl)pyridazin-4-yl)piperazin-1-y1)pyrimidin-2-yl)prop-2-yn-1-yl)-6,7-dihydro-5H-pyrazolo[5,1-b][1,3]oxazine-2-carboxamide]	50 to 500 nM	++ (++=30-70%)	< 50 nM	30 to 70%
CC(C#Cc1nccc(N2CCN(c3cc(-c4ccccc4O)nnc3N)CC[C@H]2C)n1)N(C)C (stereo partly drawn) [Compound P-254, o-{5-[(R)-4-{2-[3-(dimethylamino)-1-butynyl]-4-pyrimidinyl}-5-methyl-1,4-diazepan-1-yl]-6-amino-3-pyridazinyl}phenol]	< 50 nM	++ (++=30-70%)	< 50 nM	30 to 70%
Nc1nnc(-c2ccccc2O)cc1N1CCC2(CCN(c3ccnc(C#CCNC(=O)c4cc5ncccn5n4)n3)CC2)C1 [Compound P-34, N-(3-(4-(2-(3-amino-6-(2-hydroxyphenyl)pyridazin-4-yl)-2,8-diazaspiro[4.5]decan-8-yl)pyrimidin-2-yl)prop-2-yn-1-yl)pyrazolo[1,5-a]pyrimidine-2-carboxamide]	50 to 500 nM	++ (++=30-70%)	50 to 500 nM	30 to 70%
Cc1c(C(=O)NCC#Cc2nccc(N3CCN(c4cc(-c5ccccc5O)nnc4N)CC[C@H]3C)n2)nn(C)c1C [Compound P-239, N-[3-(4-{ (R)-4-[3-amino-6-(o-hydroxyphenyl)-4-pyridazinyl]-7-methyl-1,4-diazepan-1-y1}-2-pyrimidinyl)-2-propynyl]-1-methyl-4,5-dimethyl-3-pyrazolecarboxamide]	50 to 500 nM	++ (++=30-70%)	50 to 500 nM	30 to 70%
CN(C)CC#Cc1nccc(N2C3CC2CN(c2cc(-c4ccccc4O)nnc2N)C3)n1 [Compound P-206, o-[6-amino-5-(6-{2-[3-(dimethylamino)-1-propynyl]-4-pyrimidinyl}-3,6-diazabicyclo[3.1.1]hcpt-3-yl)-3-pyridazinyl]phenol]	< 50 nM	+++ (+++=>70%)	50 to 500 nM	> 70%
NCC#Cc1nccc(N2C3CC2CN(c2cc(-c4ccccc4O)nnc2N)C3)n1 [Compound P-91, 2-(6-amino-5-(6-(2-(3-aminoprop-1-yn-1-yl)pyrimidin-4-yl)-3,6-diazabicyclo[3.1.1]heptan-3-yl)pyridazin-3-yl)phenol]	500 to 5000 nM	+ (+=<30%)	500 to 5000 nM	< 30%
C[C@H]1COC[C@H](C)N1CC#Cc1nccc(N2CCCN(c3cc(-c4ccccc4O)nnc3N)CC2)n1 [Compound P-305, 0-{5-[4-(2-{3-[(3S,5S)-3,5-dimethyl-4-morpholinyl]-1-propynyl}-4-pyrimidinyl)-1,4-diazepan-1-yl]-6-amino-3-pyridazinyl}phenol]	50 to 500 nM	++ (++=30-70%)	50 to 500 nM	30 to 70%
CC(C)NC(=O)NCC#Cc1nccc(N2CCCN(c3cc(-c4ccccc4O)nnc3N)CC2)n1 [Compound P-327, 0-[6-amino-5-(4-{2-[3-(3-isopropylureido)-1-propynyl]-4-pyrimidinyl}-1,4-diazepan-1-yl)-3-pyridazinyl]phenol]	500 to 5000 nM	++ (++=30-70%)	500 to 5000 nM	30 to 70%
C[C@@H]1CCN(c2cc(-c3ccccc3O)nnc2N)CCN1c1ccnc(C#CCN2CCCCC2)n1 [Compound P-335, 0-(5-{(R)-5-methyl-4-[2-(3-piperidino-1-propynyl)-4-pyrimidinyl]-1,4-diazepan-1-y1}-6-amino-3-pyridazinyl)phenol]	< 50 nM	++ (++=30-70%)	< 50 nM	30 to 70%
Nc1nnc(-c2ccccc2O)cc1N1CC2CCC(C1)N2c1ccnc(C#CCn2cncn2)n1 [Compound P-289, 0-[6-amino-5-(8-{2-[3-(1H-1,2,4-triazol-1-yl)-1-propynyl]-4-pyrimidinyl}-3,8-diazabicyclo[3.2.1]oct-3-yl)-3-pyridazinyl]phenol]	50 to 500 nM	++ (++=30-70%)	50 to 500 nM	30 to 70%
Oc1ccccc1-c1cc(N2CC3CCC(C2)N3c2ccnc(C#CCN3CCCCC3)n2)cnn1 [Compound P-369, 0-(5-{8-[2-(3-piperidino-1-propynyl)-4-pyrimidinyl]-3,8-diazabicyclo[3.2.1]oct-3-y1}-3-pyridazinyl)phenol]	< 50 nM	++ (++=30-70%)	500 to 5000 nM	< 30%
Nc1nnc(-c2ccccc2O)cc1N1CCN(c2ccnc(C#CCNC(=O)c3cc4ncccn4n3)n2)CC1 [Compound P-93, N-(3-(4-(4-(3-amino-6-(2-hydroxyphenyl)pyridazin-4-yl)piperazin-1-yl)pyrimidin-2-yl)prop-2-yn-1-yl)pyrazolo[1,5-a]pyrimidine-2-carboxamide]	50 to 500 nM	++ (++=30-70%)	< 50 nM	30 to 70%
N#Cc1ccc(N2C3CCC2CN(c2cnnc(-c4ccccc4O)c2)C3)nc1C#CCN1CC(F)(F)C1 [Compound P-403, 2-[3-(3,3-difluoro-1-azetidinyl)-1-propynyl]-6-{3-[6-(o-hydroxyphenyl)-4-pyridazinyl]-3,8-diazabicyclo[3.2.1]oct-8-yl} nicotinonitrile]	500 to 5000 nM		> 5000 nM	
Nc1nnc(-c2ccccc2O)cc1N1CCN(c2ccnc(C#CCNC(=O)c3ccncc3)n2)CC1 [Compound P-56, N-(3-(4-(4-(3-amino-6-(2-hydroxyphenyl)pyridazin-4-yl)piperazin-1-yl)pyrimidin-2-yl)prop-2-yn-1-yl)isonicotinamide]	50 to 500 nM	++ (++=30-70%)	50 to 500 nM	30 to 70%
Nc1nnc(-c2ccccc2O)cc1N1CCCN(c2ccnc(C#CC3COC3)n2)CC1 [Compound P-347, 0-[6-amino-5-(4-{2-[2-(3-oxetanyl)ethynyl]-4-pyrimidinyl}-1,4-diazepan-1-yl)-3-pyridazinyl]phenol]	50 to 500 nM	+++ (+++=>70%)	50 to 500 nM	> 70%
